What was measured:
Assay in all cases: CellTiter-Glo cell viability assay
Assay type in all cases: cell-based
KG-1 = conditions: for IC50: Homo sapiens, KG-1, HEMATOPIETIC, AML, 72 hours
In short: (§1)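 Seed 2.5×10^3–5×10^3 cells/well (Day 0); treat from Day 1 for 72 h; remove drug media; add CellTiter-Glo, incubate 37° C; read luminescence; normalise to vehicle.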

MDA-MB-231 = conditions: for IC50: Homo sapiens, MDA-MB-231, BREAST, TNBC, 72 hours
In short: as §1

NCI-H820 = conditions: for IC50: NCI-H820, LUNG, NSCLC, 72 hours
In short: as §1

MDA-MB-468 = conditions: for IC50: Homo sapiens, MDA-MB-468, BREAST, TNBC, 72 hours
In short: as §1

A204 = conditions: for IC50: Homo sapiens, A204, RHABDOMYOSARCOMA, Muscle, 72 hours
In short: as §1

RXF-393 = conditions: for IC50: Homo sapiens, RXF-393, RENAL, RCC, 72 hours
In short: as §1

KMS-34 = conditions: for IC50: KMS-34, HEMATOPIETIC, MM, 72 hours
In short: as §1

RKO = conditions: for IC50: Homo sapiens, RKO, COLON, CRC, 72 hours
In short: as §1

OAW28 = conditions: for IC50: Homo sapiens, OAW-28, OAW28, OVARIAN, ovarian cystadenocarcinoma, 72 hours
In short: as §1

A498 = conditions: for IC50: Homo sapiens, A498, RENAL, RCC-VHL mut, 72 hours
In short: as §1

Hec-1A = conditions: for IC50: Homo sapiens, Hec-1A, ENDOMETRIAL, 72 hours
In short: as §1

Capan-2 = conditions: for IC50: Homo sapiens, Capan-2, PANCREAS, Pancreatic, 72 hours
In short: as §1

CCRF-CEM = conditions: for IC50: Homo sapiens, CCRF-CEM, HEMATOPIETIC, ALL, 72 hours
In short: as §1

J1M-1 = conditions: for IC50: J1M-1, HEMATOPIETIC, MM, 72 hours
In short: as §1

SUM149PT = conditions: for IC50: Homo sapiens, SUM149PT, BREAST, IBC, 72 hours
In short: as §1

H660 = conditions: for IC50: NCI-H660, H660, PROSTATE, LN Met, 72 hours
In short: as §1

SiHa = conditions: for IC50: Homo sapiens, SiHa, CERVICAL-SQUAMOUS CELL, 72 hours
In short: as §1

A375 = conditions: for IC50: Homo sapiens, A-375, A375, MELANOMA, Malignant Melanoma, 72 hours
In short: as §1

NCI-H1963 = conditions: for IC50: Homo sapiens, NCI-H1963, LUNG, Carcinoma, 72 hours
In short: as §1

NCI-H226 = conditions: for IC50: Homo sapiens, NCI-H226, LUNG, Mesothelioma, 72 hours
In short: as §1

MDA-MB-157 = conditions: for IC50: Homo sapiens, MDA-MB-157, BREAST, Medullary Carcinoma, 72 hours
In short: as §1

Huh-7-luc = conditions: for IC50: Huh-7-luc, LIVER, HCC, 72 hours
In short: as §1

BT474 = conditions: for IC50: Homo sapiens, BT-474, BT474, BREAST, Ductal Carcinoma, 72 hours
In short: as §1

MM1.S = conditions: for IC50: Homo sapiens, MM1.S, HEMATOPIETIC, MM, 72 hours
In short: as §1

Hs852T = conditions: for IC50: Hs852T, MELANOMA, 72 hours
In short: as §1

Compound: CCC(C(=O)Nc1ncc(C(=O)NO)s1)c1ccc(OC)cc1 (racemic) [#1, N-hydroxy-2-(2-(4-methoxyphenyl)butanamido)thiazole-5-carboxamide]
- IC50 (KG-1): 22 nM
- IC50 (MDA-MB-231): 113 nM
- IC50 (NCI-H820): 85 nM
- IC50 (MDA-MB-468): 68 nM
- IC50 (A204): 33 nM
- IC50 (RXF-393): 398 nM
- IC50 (KMS-34): 15 nM
- IC50 (RKO): 267 nM
- IC50 (OAW28): 288 nM
- IC50 (A498): 63 nM
- IC50 (Hec-1A): 56 nM
- IC50 (Capan-2): 363 nM
- IC50 (CCRF-CEM): 28 nM
- IC50 (J1M-1): 47 nM
- IC50 (SUM149PT): 191 nM
- IC50 (H660): 158 nM
- IC50 (SiHa): 311 nM
- IC50 (A375): 269 nM
- IC50 (NCI-H1963): 196 nM
- IC50 (NCI-H226): 479 nM
- IC50 (MDA-MB-157): 169 nM
- IC50 (Huh-7-luc): 185 nM
- IC50 (BT474): 1000 nM
- IC50 (MM1.S): 33 nM
- IC50 (Hs852T): 490 nM

Compound: CC[C@H](C(=O)Nc1ncc(C(=O)NO)s1)c1ccc(OC)cc1 [#1a, (S)—N-hydroxy-2-(2-(4-methoxyphenyl)butanamido)thiazole-5-carboxamide]
- IC50 (KG-1): 12 nM
- #1/#1a (KG-1; ratio of IC50, KG-1): 1.83
- #1b/#1a (KG-1; ratio of IC50, KG-1): 12.33
- IC50 (MDA-MB-231): 62 nM
- #1/#1a (MDA-MB-231; ratio of IC50, MDA-MB-231): 1.82
- #1b/#1a (MDA-MB-231; ratio of IC50, MDA-MB-231): 10.42
- IC50 (NCI-H820): 54 nM
- #1/#1a (NCI-H820; ratio of IC50, NCI-H820): 1.57
- #1b/#1a (NCI-H820; ratio of IC50, NCI-H820): 7.37
- IC50 (MDA-MB-468): 60 nM
- #1/#1a (MDA-MB-468; ratio of IC50, MDA-MB-468): 1.13
- #1b/#1a (MDA-MB-468; ratio of IC50, MDA-MB-468): 9.17
- IC50 (A204): 54 nM
- #1/#1a (A204; ratio of IC50, A204): 0.61
- #1b/#1a (A204; ratio of IC50, A204): 3.15
- IC50 (RXF-393): 113 nM
- #1/#1a (RXF-393; ratio of IC50, RXF-393): 3.52
- #1b/#1a (RXF-393; ratio of IC50, RXF-393): 7.82
- IC50 (KMS-34): 13 nM
- #1/#1a (KMS-34; ratio of IC50, KMS-34): 1.15
- #1b/#1a (KMS-34; ratio of IC50, KMS-34): 5.15
- IC50 (RKO): 145 nM
- #1/#1a (RKO; ratio of IC50, RKO): 1.84
- #1b/#1a (RKO; ratio of IC50, RKO): 9.37
- IC50 (OAW28): 85 nM
- #1/#1a (OAW28; ratio of IC50, OAW28): 3.39
- #1b/#1a (OAW28; ratio of IC50, OAW28): 6.61
- IC50 (A498): 47 nM
- #1/#1a (A498; ratio of IC50, A498): 1.34
- #1b/#1a (A498; ratio of IC50, A498): 7.49
- IC50 (Hec-1A): 37 nM
- #1/#1a (Hec-1A; ratio of IC50, Hec-1A): 1.51
- #1b/#1a (Hec-1A; ratio of IC50, Hec-1A): 8.35
- IC50 (Capan-2): 136 nM
- #1/#1a (Capan-2; ratio of IC50, Capan-2): 2.67
- #1b/#1a (Capan-2; ratio of IC50, Capan-2): 7.13
- IC50 (CCRF-CEM): 14 nM
- #1/#1a (CCRF-CEM; ratio of IC50, CCRF-CEM): 2
- #1b/#1a (CCRF-CEM; ratio of IC50, CCRF-CEM): 8.07
- IC50 (J1M-1): 26 nM
- #1/#1a (J1M-1; ratio of IC50, J1M-1): 1.81
- #1b/#1a (J1M-1; ratio of IC50, J1M-1): 8.42
- IC50 (SUM149PT): 74 nM
- #1/#1a (SUM149PT; ratio of IC50, SUM149PT): 2.58
- #1b/#1a (SUM149PT; ratio of IC50, SUM149PT): 8.27
- IC50 (H660): 28 nM
- #1/#1a (H660; ratio of IC50, H660): 5.64
- #1b/#1a (H660; ratio of IC50, H660): 15.11
- IC50 (SiHa): 307 nM
- #1/#1a (SiHa; ratio of IC50, SiHa): 1.01
- #1b/#1a (SiHa; ratio of IC50, SiHa): 8.91
- IC50 (A375): 32 nM
- #1/#1a (A375; ratio of IC50, A375): 8.41
- #1b/#1a (A375; ratio of IC50, A375): 20.34
- IC50 (NCI-H1963): 26 nM
- #1/#1a (NCI-H1963; ratio of IC50, NCI-H1963): 7.54
- #1b/#1a (NCI-H1963; ratio of IC50, NCI-H1963): 15.65
- IC50 (NCI-H226): 200 nM
- #1/#1a (NCI-H226; ratio of IC50, NCI-H226): 2.4
- #1b/#1a (NCI-H226; ratio of IC50, NCI-H226): 8.44
- IC50 (MDA-MB-157): 89 nM
- #1/#1a (MDA-MB-157; ratio of IC50, MDA-MB-157): 1.9
- #1b/#1a (MDA-MB-157; ratio of IC50, MDA-MB-157): 6.27
- IC50 (Huh-7-luc): 68 nM
- #1/#1a (Huh-7-luc; ratio of IC50, Huh-7-luc): 2.72
- #1b/#1a (Huh-7-luc; ratio of IC50, Huh-7-luc): 7.25
- IC50 (BT474): 145 nM
- #1/#1a (BT474; ratio of IC50, BT474): 6.9
- #1b/#1a (BT474; ratio of IC50, BT474): 20.83
- IC50 (MM1.S): 12 nM
- #1/#1a (MM1.S; ratio of IC50, MM1.S): 2.75
- #1b/#1a (MM1.S; ratio of IC50, MM1.S): 5.92
- IC50 (Hs852T): 54 nM
- #1/#1a (Hs852T; ratio of IC50, Hs852T): 9.07
- #1b/#1a (Hs852T; ratio of IC50, Hs852T): 22.96

Compound: CC[C@@H](C(=O)Nc1ncc(C(=O)NO)s1)c1ccc(OC)cc1 [#1b, (R)—N-hydroxy-2-(2-(4-methoxyphenyl)butanamido)thiazole-5-carboxamide]
- IC50 (KG-1): 148 nM
- IC50 (MDA-MB-231): 646 nM
- IC50 (NCI-H820): 398 nM
- IC50 (MDA-MB-468): 550 nM
- IC50 (A204): 170 nM
- IC50 (RXF-393): 884 nM
- IC50 (KMS-34): 67 nM
- IC50 (RKO): 1360 nM
- IC50 (OAW28): 562 nM
- IC50 (A498): 352 nM
- IC50 (Hec-1A): 309 nM
- IC50 (Capan-2): 970 nM
- IC50 (CCRF-CEM): 113 nM
- IC50 (J1M-1): 219 nM
- IC50 (SUM149PT): 612 nM
- IC50 (H660): 423 nM
- IC50 (SiHa): 2740 nM
- IC50 (A375): 651 nM
- IC50 (NCI-H1963): 407 nM
- IC50 (NCI-H226): 1690 nM
- IC50 (MDA-MB-157): 558 nM
- IC50 (Huh-7-luc): 493 nM
- IC50 (BT474): 3020 nM
- IC50 (MM1.S): 71 nM
- IC50 (Hs852T): 1240 nM
